Reference: patent US4489003A, “Imidazobenzodiazepines” (Hoffmann-La Roche Inc., priority 1982, dated 1984)

Columns and labels:
[1] = acute toxicity, single oral administration; details: rat, in vivo; single oral administration to rats
Description: The results obtained with representative compounds of formula I in the experiments described earlier are compiled in the following Table. The Table also contains data concerning the acute toxcity of some of these compounds (LD50 in mg/kg following single oral administration to rats).

[2] = target: central benzodiazepine receptors; test: inhibition of the binding of tritiated diazepam at the specific benzodiazepine receptors in the cerebral cortex; details: [3H]diazepam
Description: The affinity of compounds of general formula I to the central benzodiazepine receptors was determined according to the method described in Life Science 20, 2101-2110 (1977) and Science 198, 849-851 (1977). According to this method, the inhibition of the binding of tritiated diazepam at the specific benzodiazepine receptors in the cerebral cortex by the respective test substances is ascertained. The IC50 ("50% inhibiting concentration") is that concentration of the respective test substance which brings about a 50 percent inhibition of the specific binding of the tritiated diazepam at the specific benzodiazepine receptors in the cerebral cortex.

[3] = tested on: spasmodic seizures caused by pentetrazole; test: antipentetrazole test; assay type: in vivo; details: Rattus norvegicus, po, 0.5 h; female rats 60-80 g, p.o. 30 minutes before 120 mg/kg pentetrazole i.p.
Description: The central properties of the compounds of formula I provided by the present invention can be determinded, for example, in the antipentetrazole test which is described hereinafter and which is generally recognized for recording anticonvulsant properties.
In this animal experiment the compound under investigation is administered orally to female rats weighing 60-80 g and 30 minutes later there are administered intraperitoneally 120 mg/kg of pentetrazole which causes emprosthotonus and tonic stretchings of the fore and/or hind limbs in unprotected experimental animals 1 to 4 minutes after the injection. Ten experimental animals are used per dosage of test substance. After counting the protected experimental animals, the ED50 is determined according to the Probit method. The ED50 is that dosage which protects 50% of the experimental animals from the spasmodic seizures caused by pentetrazole.

[4] = tested on: sedative, muscle relaxant and motor coordination-disturbing activity caused by high dosages of diazepam; test: traction test (antagonism of diazepam); assay type: in vivo; details: Mus musculus, po, 0.25 h; mice, p.o. 15 minutes after 3 mg/kg diazepam i.p.
Description: In this animal experiment the ability of the test substances to antagonise the sedative, muscle relaxant and motor coordination-disturbing activity caused by high dosages of diazepam is determined.
Mice weighing 17-29 g are lifted by the tail and are allowed to grip a taut horizontal wire (length 15 cm, height 20 cm, diameter 1 mm) with the front paws, whereupon the experimental animals are released. Untreated control animals are capable of gripping the wire with both front paws and at least one hind paw within 3 seconds. If 3 mg/kg of diazepam are administered intraperitoneally to the experimental animals, then their aforementioned capabilities disappear, i.e. they are no longer capable of gripping the taut horizontal wire within 3 seconds with both front paws and at least one hind paw. 15 minutes after the administration of diazepam the compound under investigation is administered orally to the experimental animals, whereupon there are counted those animals which have regained the aforementioned capabilities. The ED50 is that dosage which in 50% of the experimental animals antagonizes the action of diazepam, i.e. counteracts this.

Row | SMILES | LD50 [1] [mg/kg] | IC50 [2] [µM] | ED50 [3] [mg/kg] | ED50 [4] [mg/kg]
1 | O=C(OCC1CC1)c1ncn2c1[C@@H]1CCCN1C(=O)c1c(Cl)cccc1-2 | 1000 to 2000 | 2.3 | 0.66 | 0.8
2 | O=C(OCC1CC1)c1ncn2c1[C@@H]1CCN1C(=O)c1c(Cl)cccc1-2 |  | 1.1 | 0.27 | < 30
3 | O=C(OCc1ccccc1)c1ncn2c1[C@@H]1CCCN1C(=O)c1c(Cl)cccc1-2 |  | 1.5 | > 100 | 0.09
4 | O=C(OC1CCCCC1)c1ncn2c1[C@@H]1CCCN1C(=O)c1c(Br)cccc1-2 | > 5000 | 2.7 | 7 | < 30
5 | O=C(OCC1CC1)c1ncn2c1[C@@H]1CCCN1C(=O)c1c(Br)cccc1-2 | 625 to 1250 | 2.6 | 0.63 | < 30
6 | O=C(OC1CCCCC1)c1ncn2c1[C@@H]1CCCN1C(=O)c1c(I)cccc1-2 | > 5000 | 2.1 | 2.2 | > 30
7 | C#CCOC(=O)c1ncn2c1[C@@H]1CCCN1C(=O)c1c(Cl)cccc1-2 [Example 27, 2-propynyl (S)-8-chloro-11,12,13,13a-tetrahydro-9-oxo-9H-imidazo[1,5-a]pyrrolo[2,1-c][1,4]benzodiazepine-1-carboxylate] |  | 2.1 | > 100 | 0.005
